Entries after “also recorded” stand apart in the source; their conditions may differ.
Tests used:
[1] = test system: b-catenin transcription activity in brain endothelial cells of CCM3-ECKO mice; assay: Immunostaining of brain sections of CCM3-ECKO mice (b-gal reporter, progenitor/EndMT markers, VE-cadherin); type: in vivo, mouse; conditions: dpn 9
Excerpt: The CCM3-flox/flox mice were generated at TaconicArtemis (Koeln, Germany). Two P-lox sequences were inserted that flank exons 4 and 5 of the murine CCM3 gene, to produce a loss-of-function mutation after excision by Ore recombinase. These CCM3-flox/flox mice were bred with Cdh5(PAC)-CreERT2 mice (Wang et al, 2010) for tamoxifen-inducible endothelial-cell-specific expression of Ore-recombinase and CCM3 gene recombination. The CCM3-flox/flox-Cdh5(PAC)-CreERT2 mice were further bred with BAT-gal mice (Maretto et al, 2003) to monitor the activation of b-catenin transcription signaling, and with Rosa 26-Enhanced […] Fluorescent Protein (EYFP) (Rosa26EYFP) mice (Srinivas et al, 2001) to monitor the expression of Ore-recombinase through the expression of EYFP. Tamoxifen (Sigma) was dissolved in corn oil and 10% ethanol (at 10 mg/ml), and then diluted 1:5 in corn oil before single intragastric administration to dpn 1-2 pups (35 mg/kg body weight), as described in^14. The control (wild-type) mice included CCM3-flox/flox-Cdh5(PAC)-CreERT2-BAT-gal mice treated with the vehicle used to dissolve the tamoxifen (corn oil plus 2% ethanol), and CCM3^+/+-Cdh5(PAC)-CreERT2-BAT-gal mice treated with tamoxifen.
Brains and eyes from mice pups were fixed in 3% paraformaldehyde immediately after dissection, and this fixing was continued overnight at 4° C. The retinas were dissected from the eyes just before staining as the whole mount. Fixed brains were embedded in 4% low-melting-point agarose and sectioned along the sagittal axis ([…]) using a vibratome (1000 Plus, The Vibratome Company, St. Louis, Mo., US).
Brain sections and retinas were stained as floating samples in 12-well and 96-well plates, respectively. They were blocked overnight at 4° C. in 1% fish-skin gelatin with 0.5% Triton X100 and 5% donkey serum in phosphate-buffered saline (PBS) containing 0.01% thimerosal. The samples were incubated overnight at 4° C. with the primary antibodies diluted in 1% fish-skin gelatin with 0.25% Triton X100 in PBS containing 0.01% thimerosal. Following washing with 0.1% Triton X100 in PBS, the secondary antibodies were added for 4 h at room temperature in 1% fish-skin gelatin with 0.25% Triton X100 in PBS containing 0.01% thimerosal. The incubation with DAPI was in PBS for 4 h, which was followed by several washes in PBS, post-fixating with 3% paraformaldehyde for 5 min at room temperature, and further washes in PBS. The brain sections were mounted in Vectashield with DAPI, and the coverslips fixed with nail varnish; the retinas were mounted in Prolong gold with DAPI.
(§1) The following antibodies were used: anti-Pecam (hamster; MAB1398Z, Millipore); anti-b-galactosidase (chicken; ab9361, Abcam); anti-VE-cadherin (rat monoclonal; 550548, BD Biosciences); anti-VE-cadherin (goat; sc-6458, Santa Cruz); anti-active-b-catenin (mouse monoclonal clone 8E7) dephosphorylated on Ser37 and Thr41, Millipore); anti-total-b-catenin (mouse monoclonal; Cell Signaling); anti-S100a4 (rabbit; 07-2274, Millipore); anti-Klf4 (goat; AF3158, R&D); anti-CD44 (rat; 553131, BD Biosciences); anti-ID1 (rabbit; sc-488, Santa Cruz); anti-aSMA (mouse monoclonal; F3777, Sigma); anti-GFP (rabbit; A-6455, Invitrogen); anti-podocalyxin (goat; AF1556, R&D); anti-phospho-histone H3 (rabbit; ab51776, Millipore); anti-CCM3 (rabbit; Eurogentec); anti-p-Smad1 (rabbit; 9516, Cell Signaling); anti-endomucin (rabbit; sc-65495, Santa Cruz); anti-α-tubulin (mouse monoclonal; T9026, Sigma).

[2] = test system: CCM3-knockout endothelial cell line; assay: Immunostaining of CCM3-knockout endothelial cell line; type: cell-based, mouse
Description: (§2) In some experiments, endothelial cell lines from the lungs of CCM3-flox/flox mice (8-10 weeks old) were immortalized in culture through retroviral expression of polyoma middle T gene^60. […] These cells were then maintained in culture for up to 25 passages without detectable changes in the effects of this CCM3 ablation.
(§3) Drugs were added to confluent cells for 48 h before the indicated assays. The final concentrations used were: […] (all from Sigma-Aldrich). As all of these were dissolved in DMSO, control treatment (vehicle) was 0.1% DMSO final concentration, as for drug treatment.
Cells cultured in vitro were fixed and stained as described previously^46.
as §1

[3] = test system: CCM3-ECKO mice; assay: Bleeding and mortality in drug-treated CCM3-ECKO mice; conditions: 30 mg/kg body weight intragastrically, daily
Description: Sulindac sulfide (Sigma) and sulindac sulfone (Sigma) were both dissolved in DMSO and further diluted 1:50 in corn oil. They were administered intragastrically, daily (30 mg/kg body weight), starting one day after the induction of recombination. The control mice were treated in parallel with vehicle only (corn oil plus 2% DMSO).

[4] = test system: CCM3-knockout endothelial cell line; assay: rtPCR of b-catenin target gene and progenitor/EndMT markers in CCM3-knockout endothelial cell line; type: cell-based, mouse; conditions: 48 h; 135 mM sulindac sulfide, 125 mM sulindac sulfone, 200 mM silibinin, 250 mM salinomycin
Description: as §2, §3
RNA extraction was performed with RNeasy kits (74106; […]). The RNA (1 μg) was reverse transcribed with random hexamers (High Capacity cDNA Archive kits; Applied Biosystems). The cDNA was amplified with TaqMan gene expression assays (Applied Biosystems) using a 7900 HT thermocycler (ABI/Prism). For each sample, the expression levels were determined with the comparative threshold cycle (Ct) method, and normalized to the housekeeping genes encoding 18S and glyceraldehyde-3-phosphate dehydrogenase (GAPDH). For amplification, the following probes (Applied Biosystems) that have been validated to recognize the mouse transcripts in rtPCR were used: Axin2, Nkd1, Lef1, ccnd1, cMyc-Klf4, Ly6a, S100a4, Id1, Cdh2, Acta2, CD44. The probes to identify the CCM3 mRNA transcript were custom designed, as: forward, […] (SEQ ID No. 12); reverse, GCTCTGGCCGCTCAATCA (SEQ ID No. 13); reporter sequence, […] (SEQ ID No. 14).

## CSc1ccc(/C=C2/C(C)=C(CC(=O)O)c3cc(F)ccc32)cc1 [sulindac sulfide, (Z)-5-Fluoro-2-methyl-1-[4-(methylthio)benzylidene]indene-3-acetic acid]
[1]; CCM3-ECKO BAT-gal pups
  expression of nuclear reporter gene b-gal in endothelial cells of brain vasculature: abolition; also recorded: inhibited
[1]; CCM3-ECKO pups
  VE-cadherin localization at endothelial cell-cell junctions in brain vessels: better localized at endothelial cell-cell junctions
[1]; CCM3-ECKO pups, immunostaining
  expression of b-catenin target genes / progenitor and EndMT markers (Klf4, S100a4, Id1) in brain endothelium: strongly reduces; also recorded: inhibited
[2]
  apical distribution of podocalyxin: re-establishes the correct apical distribution
[2]; 48 h
  VE-cadherin at cell-cell contacts: more localized to cell-cell contacts
  nuclear accumulation of active b-catenin / distribution to adherens junctions: restored the distribution of active b-catenin to the adherens junctions
  overexpression of progenitor/EndMT marker proteins (Klf4, S100a4, Id1, CD44): strongly reduced; also recorded: inhibited
[3]
  bleeding from vascular lesions or mortality versus vehicle-treated mice: did not observe either increased bleeding from vascular lesions or mortality
[4]
  inhibition of transcription of Axin2, Klf4 and S100a4 (rtPCR): greatest inhibition; also recorded: most effective
